Measurements from US7741493B2, “Heterocyclic compounds as P2X7 ion channel blockers” (Aventis Pharmaceuticals Inc., priority 2003, dated 2010).
Counter-ions that a name gives are not always drawn. Like-named read-outs stand apart in the source and are kept apart here.

How the values were obtained:
Balb/cByJ mice = assay: monoclonal antibody (mAb) type II collagen induced arthritis; format: in vivo, mouse; details: 3 mg/kg×3, PO
Description: This Example illustrates the anti-inflammatory activity of the compounds of this invention using a model of Balb/c mice subjected to monoclonal antibody (mAb) type II collagen induced arthritis.
A compound of this invention is dissolved in vehicle of 2% Tween 80/0.9% NaCl, at doses of 50 or 30 and administered orally (50 mg/kg) or intraperitoneally at 30 mg/kg once daily for 3 consecutive days after monoclonal antibody of collagen was injected. Dosing volume is 20 ml/kg.
Groups of 5 Balb/cByJ mice strain, 6-8 weeks of age, are used for the induction of arthritis by monoclonal antibodies (mAbs) responding to type II collagen, plus lipopolysaccharide (LPS). The animals are administered intravenously with a combination of 4 different mAbs (D8, F10, DI-2G and A2) in total of 4 mg/mouse at day 0, and followed by intravenous 25 μg of LPS 72 hours later (day 3). From day 3, one hour after LPS administration, ML-659 at 50 mg/kg (PO) or 30 mg/kg (IP) and vehicle (2% Tween 80/0.9% NaCl, PO) as well as the positive control indomethacin, 3 mg/kg (PO) are administrated once daily for 3 consecutive days. A plethysmometer (Ugo Basile Cat # 7150) with water cell (12 mm diameter) is used for the measurement of increase in volume of the two hind paws at day 0, 5, 7, 10, 14, and 17. The percent inhibition of increase in volume is calculated by the following formula: Inhibition (%): [1−(Tn−To)/(Cn−Co)]×100 Where: Co (Cn): volume of day 0 (day n) in vehicle control To (Tn): volume of day 0 (day n) in test compound-treated group The reduction of both of two hind paws edema by more than 30% is considered significant.

P2X7 = molecular target: T1, P2X7 (Homo sapiens, UniProt Q99572); assay: YO-PRO-1 dye uptake assay in U373 cells stably expressing P2X7; format: cell-based; set-up: The complete open reading frame of human P2X7 was amplified from Incyte clone 148057; expressed in transfected cells; details: dye uptake through P2X7, U373 cells, 300 μM BzATP, 5 μM YO-PRO-1, test compounds 30 nM to 3 μM
T1 sequence (Q99572 1-595): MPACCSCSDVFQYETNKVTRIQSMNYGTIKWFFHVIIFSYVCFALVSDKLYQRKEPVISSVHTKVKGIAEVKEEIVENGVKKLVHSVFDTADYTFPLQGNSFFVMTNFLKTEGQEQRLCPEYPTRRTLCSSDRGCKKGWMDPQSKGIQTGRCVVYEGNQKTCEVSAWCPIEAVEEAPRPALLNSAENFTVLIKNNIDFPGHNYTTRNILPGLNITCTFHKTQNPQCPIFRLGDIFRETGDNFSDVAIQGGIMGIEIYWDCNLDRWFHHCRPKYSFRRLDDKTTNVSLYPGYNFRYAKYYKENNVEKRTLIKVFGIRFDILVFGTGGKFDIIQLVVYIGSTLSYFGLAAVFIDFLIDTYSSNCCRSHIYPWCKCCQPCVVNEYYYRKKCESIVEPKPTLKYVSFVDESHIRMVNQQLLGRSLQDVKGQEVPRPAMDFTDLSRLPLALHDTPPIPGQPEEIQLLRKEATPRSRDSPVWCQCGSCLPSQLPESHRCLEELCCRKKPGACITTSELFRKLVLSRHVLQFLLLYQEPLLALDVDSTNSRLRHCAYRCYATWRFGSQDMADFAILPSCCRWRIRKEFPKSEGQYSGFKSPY
In short: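 U373 cells stably expressing human P2X7 preincubated 20 min at 37° C. with compound (30 nM to 3 μM) in Mg/Ca-free HBSS. YO-PRO-1 (5 μM final) and BzATP (300 μM final) then added for 1.5 h at 37° C.; dye-uptake fluorescence compared with compound-free control.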

IC50 (P2X7; read-out: IC50) | Structure (SMILES) | other results
124 nM | c1ccc([C@H]2NC(NCC3CCCCC3)=N[C@H]2c2ccccc2)cc1 [(cis-4,5-Diphenyl-4,5-dihydro-1H-imidazol-2-yl)-(cyclohexylmethyl)amine hydrochloride] | 
167 nM | Cc1ccccc1[C@H]1NC(NCc2ccccc2)=N[C@H]1c1ccccc1C [[cis-4,5-bis-(2-Methylphenyl)-4,5-dihydro-1H-imidazol-2-yl]-benzylamine hydrochloride] | 
34 nM | Clc1cccc(CC2=N[C@@H](c3ccccc3)[C@@H](c3ccccc3)N2)c1 [cis-4,5-diphenyl-2-(3-chlorobenzyl)-4,5-dihydro-1H-imidazole] | 
251 nM | c1ccc(CCC2=N[C@@H](c3ccccc3)[C@@H](c3cccnc3)N2)cc1 (relative stereo) [ditrifluoroacetate] | 
225 nM | Brc1cccc(CNC2=N[C@@H](c3ccccc3)[C@@H](c3ccccc3)N2)c1 [cis-4,5-diphenyl-2-(3-bromobenzyl)amino-4,5-dihydro-1H-imidazole] | 
768 nM | c1ccc(CCOCC2=N[C@@H](c3ccccc3)[C@@H](c3ccccc3)N2)cc1 [cis-4,5-diphenyl-2-[(2-phenethyloxy)methyl]-4,5-dihydro-1H-imidazole] | 
966 nM | Fc1cccc(F)c1CC1=N[C@@H](c2ccccc2)[C@@H](c2ccccc2)N1 [trifluoroacetate] | 
94 nM | Cc1ccccc1CCC1=N[C@@H](c2cccc(F)c2)[C@@H](c2cccc(F)c2)N1 [2-[2-(2-Methylphenyl)ethyl]-cis-4,5-bis-(3-fluorophenyl)-4,5-dihydro-1H-imidazole trifluoroacetate] | 
583 nM | c1ccc(CSCC2=N[C@@H](c3ccccc3)[C@@H](c3ccccc3)N2)cc1 [2-[(Benzylsulfanyl)methyl]-cis-4,5-diphenyl-4,5-dihydro-1H-imidazole trifluoroacetate] | 
71 nM | Fc1ccc(CNC2=N[C@@H](c3cccc(F)c3)[C@@H](c3cccc(F)c3)N2)cc1 [[cis-4,5-bis-(3-Fluorophenyl)-4,5-dihydro-1H-imidazol-2-yl]-(4-fluorobenzyl)amine hydrochloride] | 
49 nM | C[C@@]1(c2cccc(F)c2)N=C(NCc2cccc(F)c2)N[C@@H]1c1cccc(F)c1 | 

Further lines, the molecule ahead of its results:

Structure (SMILES) | IC50 (P2X7; read-out: IC50) | other results
COc1ccc2c(c1)c(CC(=O)O)c(C)n2C(=O)c1ccc(Cl)cc1 [indomethacin] |  | effect relative to the vehicle treated group (hind paws edema) (Balb/cByJ mice; day 5): 63%; effect relative to the vehicle treated group (hind paws edema) (Balb/cByJ mice; day 7): 70%; effect relative to the vehicle treated group (hind paws edema) (Balb/cByJ mice; day 10): 80%; effect relative to the vehicle treated group (hind paws edema) (Balb/cByJ mice; day 14): 88%; effect relative to the vehicle treated group (hind paws edema) (Balb/cByJ mice; day 17): 85%
Cc1ccc([C@H]2NC(NCc3ccc(F)cc3)=N[C@H]2c2ccc(C)cc2)cc1 [[cis-4,5-bis-(4-Methylphenyl)-4,5-dihydro-1H-imidazol-2-yl]-(4-fluorobenzyl)amine hydrochloride] | 287 nM | 
Cc1ccc(CC2=N[C@@H](c3ccccc3)[C@@H](c3ccccc3)N2)cc1F [trifluoroacetate] | 178 nM | 
Fc1ccc(CNC2=N[C@@H](c3ccc(Cl)cc3)[C@@H](c3ccc(Cl)cc3)N2)cc1F [[cis-4,5-bis-(4-Chlorophenyl)-4,5-dihydro-1H-imidazol-2-yl]-(3,4-difluorobenzyl)-amine hydrochloride] | 400 nM | 
C[C@@]1(c2ccccc2)N=C(COCC2CC2)N[C@@H]1c1ccccc1 (relative stereo) [2-[[(Cyclopropyl)methoxy]methyl]-cis-4,5-diphenyl-4-methyl-4,5-dihydro-1H-imidazole trifluoroacetate] | 676 nM | 
Fc1ccc([C@H]2NC(CCc3ccccc3)=N[C@H]2c2ccc(F)cc2)cc1 [cis-4,5-bis(4-fluorophenyl)-2-(2-phenylethyl)-4,5-dihydro-1H-imidazole] | 277 nM | 
Cc1cccc([C@H]2NC(NCc3ccc(F)c(F)c3)=N[C@H]2c2cccc(C)c2)c1 [[cis-4,5-bis-(3-Methylphenyl)-4,5-dihydro-1H-imidazol-2-yl]-(3,4-difluorobenzyl)-amine hydrochloride] | 118 nM | 
Cc1cccc(CSC2=N[C@@H](c3ccccc3)[C@@H](c3ccccc3)N2)c1 [cis-4,5-diphenyl-2-(3-methylbenzyl)thio-4,5-dihydro-1H-imidazole] | 722 nM | 
Fc1ccc(CC2=N[C@@H](c3ccccc3)[C@@H](c3ccccc3)N2)c(Cl)c1 [trifluoroacetate] | 120 nM | 
OC(C1=N[C@@H](c2ccccc2)[C@@H](c2ccccc2)N1)c1ccccc1 (stereo partly drawn) [cis-(4,5-diphenyl-4,5-dihydro-1H-imidazol-2-yl)-phenyl-methanol] | 241 nM | 
Clc1ccccc1[C@H]1NC(NCc2ccccc2)=N[C@H]1c1ccccc1Cl [[cis-4,5-bis-(2-Chlorophenyl)-4,5-dihydro-1H-imidazol-2-yl]-benzylamine hydrochloride] | 925 nM | 
Clc1cccc(CSC2=N[C@@H](c3ccccc3)[C@@H](c3ccccc3)N2)c1 [cis-4,5-diphenyl-2-(3-chlorobenzyl)thio-4,5-dihydro-1H-imidazole] | 634 nM | 
Fc1cccc([C@H]2NC(NCc3ccc(F)c(F)c3)=N[C@H]2c2cccc(F)c2)c1 [[cis-4,5-bis-(3-Fluorophenyl)-4,5-dihydro-1H-imidazol-2-yl]-(3,4-difluorobenzyl)-amine hydrochloride] | 71 nM | 
Fc1cccc(CCC2=N[C@@H](c3ccccc3)[C@@H](c3ccccc3)N2)c1 [2-[2-(3-Fluorophenyl)ethyl]-cis-4,5-diphenyl-4,5-dihydro-1H-imidazole trifluoroacetate] | 31 nM | 
c1ccc(COc2ccc(CSC3=N[C@@H](c4ccccc4)[C@@H](c4ccccc4)N3)cc2OCc2ccccc2)cc1 [2-[(3,4-Dibenzyloxybenzyl)thio]-cis-4,5-diphenyl-4,5-dihydro-1H-imidazole hydrochloride] | 548 nM | 
Fc1ccc(CNC2=N[C@@H](c3ccccc3Br)[C@@H](c3ccccc3Br)N2)cc1 [[cis-4,5-bis-(2-Bromophenyl)-4,5-dihydro-1H-imidazol-2-yl]-(4-fluorobenzyl)amine hydrochloride] | 898 nM | 
C[C@]1(c2ccccc2)N=C(Cc2cccc(Cl)c2)N[C@H]1c1ccccc1 (relative stereo) [2-(3-Chlorobenzyl)-cis-4,5-diphenyl-4-methyl-4,5-dihydro-1H-imidazole trifluoroacetate] | 42 nM | 
c1ccc(CNCC2=N[C@@H](c3ccccc3)[C@@H](c3ccccc3)N2)cc1 [[(cis-4,5-Diphenyl-4,5-dihydro-1H-imidazol-2-yl)methyl]benzylamine ditrifluoroacetate] |  | IC50 (P2X7; IC50 (nM)): 318 nM
Cc1cccc(CNC2=N[C@@H](c3ccccc3)[C@@H](c3ccccc3)N2)c1 [cis-4,5-diphenyl-2-(3-methylbenzyl)amino-4,5-dihydro-1H-imidazole] | 187 nM | 
